The text below walks through data of patent US20230250131A1, “HYDROXYSTEROID COMPOUNDS” (Epirium Bio Inc., priority 2022, published 2023).

For this assay, the system named is PGC-1α. As to the kind of experiment: PGC-1α assay in differentiated C2C12 cells (ELISA-type antibody detection, absorbance at 450 nm). The following applies: each compound tested at 0.01 nM, DMSO control as 100%; for activity at 10 pM: Mus musculus, C2C12, C2C12 myotubes. The format is cell-based. The protocol: The compounds of Table 2 were synthesized and tested in a PGC-1α assay.
Culture conditions: DMEM containing 25 mM glucose with 10% FBS supplementation; grown at 37° C. and 5% CO2.
Assay Conditions: C2C12 cells were cultured in DMEM supplemented in 10% FBS up to 80% confluence. The cells were further trypsinized and seeded into a 96 well plate at a density of 5000 cells/well (well volume—100 μL) (Day 0). Following attachment, the cells were allowed to reach 80-90% confluence in the plate (typically 48 hours post seeding) and further differentiated using DMEM+2% Horse Serum (200 μL/well). The media was changed every day or at least every alternate day for 5 days to allow myoblasts to differentiate into myotubes. On day 7 (post seeding), the cells were treated with standards and test compounds for PGC-1α assay.
PGC-1α assay: For the detection of PGC-1α, the cells were incubated with […] primary antibody (Merck, WH10010891M3) in PBS-T containing 5% BSA at 4° C. overnight. The cells were then washed three times with PBS-T for 5 minutes and incubated with 1:1000 dilution secondary antibody (Anti-rabbit IgG, HRP-linked Antibody, Cell Signaling) in PBS-T with […] for 1 hour at RT. Cells were washed three times with PBS-T for 5 minutes The cells were incubated with 100 μl TMB substrate solution for 30 minutes and the reaction was stopped with 100 μl of 2N H2SO4. Then the plate was read at 450 nm using ELISA plate reader and absorbance recorded. […] was calculated using DMSO control as 100%. (For plate optical density calculations, a background correction was taken at 540 nm). Each compound was tested at a concentration of 0.01 nM.
Background: An ELISA detects its analyte on a solid surface through an enzyme-linked reagent.

[1] abbreviates: average over experiments, read-out: Single point PGC1-Alpha Assay: Average Activity (%).
[2] abbreviates: individual experiments (Exp. 1-3), read-out: Single point PGC1-Alpha Assay: Activity (%).

“And” between values parts separate entries of the source, which are not always exact repeats. Equal values may be shown once. Read-outs that look alike come from different tables or passages of the source.

Regarding `CCN1C(=O)CC[C@@]2(C)C1=CCC1C2[C@@](C)(O)C[C@@]2(C)C1CC[C@@H]2C(C)=O` (some centres unmarked), the activity at 10 pM runs as follows: under setting [1], 118%; under setting [2], 118%.
Consider `CCN1C(=O)CC[C@@]2(C)C1=CCC1C2[C@@H](O)C[C@@]2(C)C1CC[C@@H]2C(C)O` (some centres unmarked), for which the activity at 10 pM by setting is: under setting [1], 94%; under setting [2], 94%.
Take `CCN1C(=O)CC[C@@]2(C)C1=CCC1C2[C@@](C)(O)C[C@@]2(C)C1CC[C@@H]2C(C)(C)O` (some centres unmarked): the activity at 10 pM is 126% under setting [1] and 126% under setting [2].
As to `CCN1C(=O)CC[C@@]2(C)C1=CCC1C2[C@@H](O)C[C@@]2(C)C1CC[C@@H]2C(C)=O` (some centres unmarked), the activity at 10 pM is, setting by setting: under setting [1], 116%; under setting [2], 116%.
In the case of `CCN1C(=O)CC[C@@]2(C)C1=CCC1C3CCC(C4(C)OCCO4)[C@@]3(C)C[C@](C)(O)C12` (some centres unmarked), the activity at 10 pM runs as follows: under setting [1], 119%; under setting [2], 119%.
With `CCCN1C(=O)CC[C@@]2(C)C1=CCC1C2[C@@H](O)C[C@@]2(C)C1CC[C@@H]2C(C)=O` (some centres unmarked), the activity at 10 pM under setting [1] is 109% and the activity at 10 pM under setting [2] amounted to 109%.
As to `[2H][C@]1(O)C[C@@]2(C)C(CC[C@@H]2C(C)=O)C2CC=C3N(CC)C(=O)CC[C@]3(C)C21` (some centres unmarked), where the note is “C2C12 myotubes, individual experiments (Exp. 1-3), 10 pM”, the “Single point PGC1-Alpha Assay: Activity (%)” value is 137% and 112% and 131%. For the same compound, the activity at 10 pM under setting [1] was found to be 127%.
